Data taken from ChEMBL document CHEMBL1770058, “MMP-13 selective alpha-sulfone hydroxamates: identification of selective P1' amides” (Bioorg Med Chem Lett, 2011).

Key:
[1] = molecular target: T1, Interstitial collagenase (Homo sapiens, UniProt P03956); assay: Inhibition of human MMP1
T1 sequence (P03956 whole entry): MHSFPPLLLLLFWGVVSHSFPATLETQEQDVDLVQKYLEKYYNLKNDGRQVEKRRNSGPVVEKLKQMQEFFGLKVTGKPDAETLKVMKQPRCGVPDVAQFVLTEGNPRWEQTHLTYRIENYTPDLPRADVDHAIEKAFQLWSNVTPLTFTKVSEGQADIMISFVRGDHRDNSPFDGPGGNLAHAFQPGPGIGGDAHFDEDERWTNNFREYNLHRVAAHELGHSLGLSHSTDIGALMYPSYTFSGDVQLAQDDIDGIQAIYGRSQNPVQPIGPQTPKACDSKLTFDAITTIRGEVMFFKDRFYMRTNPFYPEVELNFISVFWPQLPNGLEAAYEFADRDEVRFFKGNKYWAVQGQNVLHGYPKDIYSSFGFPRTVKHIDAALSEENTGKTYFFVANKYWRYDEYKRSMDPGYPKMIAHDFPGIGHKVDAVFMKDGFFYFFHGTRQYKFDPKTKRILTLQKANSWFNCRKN

[2] = molecular target: Matrix metalloproteinase-14 (Homo sapiens, UniProt P50281); assay: Inhibition of human MMP14
[3] = molecular target: 72 kDa type IV collagenase (Homo sapiens, UniProt P08253); assay: Inhibition of human MMP2
[4] = molecular target: Neutrophil collagenase (Homo sapiens, UniProt P22894); assay: Inhibition of human MMP8
[5] = molecular target: Matrix metalloproteinase-9 (Homo sapiens, UniProt P14780); assay: Inhibition of human MMP9
[6] = molecular target: Collagenase 3 (Homo sapiens, UniProt P45452); assay: Inhibition of human MMP13
[7] = Bioavailability in rat; format: ADME, organism-based; conditions: in vivo
[8] = Half life in rat; format: ADME, organism-based; conditions: in vivo

Sequence of 72 kDa type IV collagenase (P08253 whole entry): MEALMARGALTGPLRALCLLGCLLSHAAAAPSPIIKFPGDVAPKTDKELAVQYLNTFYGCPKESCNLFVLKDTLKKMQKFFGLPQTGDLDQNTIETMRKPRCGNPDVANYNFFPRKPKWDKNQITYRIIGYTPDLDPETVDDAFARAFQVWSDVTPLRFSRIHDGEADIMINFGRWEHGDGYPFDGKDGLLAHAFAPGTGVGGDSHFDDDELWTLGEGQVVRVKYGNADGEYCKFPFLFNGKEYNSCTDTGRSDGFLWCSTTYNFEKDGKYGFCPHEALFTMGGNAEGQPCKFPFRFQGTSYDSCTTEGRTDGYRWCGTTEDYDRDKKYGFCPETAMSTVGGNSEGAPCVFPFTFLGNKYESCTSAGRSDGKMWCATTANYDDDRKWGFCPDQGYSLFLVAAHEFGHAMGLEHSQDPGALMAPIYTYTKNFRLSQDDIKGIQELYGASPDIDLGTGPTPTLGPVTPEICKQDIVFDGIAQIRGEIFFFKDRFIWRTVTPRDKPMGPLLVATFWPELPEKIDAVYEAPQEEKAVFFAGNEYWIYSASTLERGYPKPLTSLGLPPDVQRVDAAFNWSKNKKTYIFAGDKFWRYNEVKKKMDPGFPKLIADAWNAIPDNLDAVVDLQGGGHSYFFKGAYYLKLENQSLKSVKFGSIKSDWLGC
Sequence of Matrix metalloproteinase-9 (P14780 whole entry): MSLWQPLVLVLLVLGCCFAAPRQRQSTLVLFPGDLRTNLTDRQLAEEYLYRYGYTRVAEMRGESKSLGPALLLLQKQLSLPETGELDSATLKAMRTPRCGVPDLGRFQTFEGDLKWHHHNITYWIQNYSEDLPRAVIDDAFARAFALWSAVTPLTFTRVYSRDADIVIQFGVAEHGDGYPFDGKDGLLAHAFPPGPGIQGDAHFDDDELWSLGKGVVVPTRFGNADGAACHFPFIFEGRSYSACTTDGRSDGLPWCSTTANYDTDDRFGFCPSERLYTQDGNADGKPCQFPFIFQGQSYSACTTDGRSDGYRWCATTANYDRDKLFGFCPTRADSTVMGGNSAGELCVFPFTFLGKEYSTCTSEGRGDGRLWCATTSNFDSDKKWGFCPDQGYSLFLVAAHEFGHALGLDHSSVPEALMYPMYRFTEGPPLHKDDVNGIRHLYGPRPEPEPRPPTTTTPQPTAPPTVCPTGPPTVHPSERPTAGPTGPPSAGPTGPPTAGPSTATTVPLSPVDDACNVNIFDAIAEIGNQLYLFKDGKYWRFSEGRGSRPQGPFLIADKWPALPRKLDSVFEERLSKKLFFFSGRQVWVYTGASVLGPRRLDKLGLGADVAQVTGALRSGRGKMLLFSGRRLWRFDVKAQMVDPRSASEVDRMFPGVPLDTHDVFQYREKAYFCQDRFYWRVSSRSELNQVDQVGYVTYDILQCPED
Sequence of Neutrophil collagenase (P22894 whole entry): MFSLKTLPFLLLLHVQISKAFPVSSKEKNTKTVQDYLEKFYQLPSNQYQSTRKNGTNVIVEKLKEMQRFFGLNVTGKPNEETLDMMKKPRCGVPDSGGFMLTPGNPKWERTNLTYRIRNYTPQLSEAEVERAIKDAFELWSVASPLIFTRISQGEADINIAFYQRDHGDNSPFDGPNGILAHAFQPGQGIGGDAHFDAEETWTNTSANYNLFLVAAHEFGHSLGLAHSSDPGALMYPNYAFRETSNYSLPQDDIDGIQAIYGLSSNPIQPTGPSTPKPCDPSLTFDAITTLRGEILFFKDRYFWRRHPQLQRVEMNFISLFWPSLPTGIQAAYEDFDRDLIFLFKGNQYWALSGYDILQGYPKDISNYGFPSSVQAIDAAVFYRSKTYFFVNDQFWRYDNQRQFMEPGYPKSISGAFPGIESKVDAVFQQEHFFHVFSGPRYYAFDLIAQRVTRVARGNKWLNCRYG

| Compound | IC50 [3] | IC50 [4] | IC50 [5] | IC50 [6] | also measured |
| --- | --- | --- | --- | --- | --- |
| C#CCN1CCC(C(=O)NO)(S(=O)(=O)c2ccc(Sc3ccccc3)cc2)CC1 |  |  |  |  | IC50 [1]: > 5 µM; IC50 [2]: 0.008 µM |
| CN(C)c1ccc(C(=O)C2CCN(c3ccc(S(=O)(=O)C4(C(=O)NO)CCOCC4)cc3)CC2)cc1 | 4 µM | > 10 µM | > 10 µM | 0.008 µM |  |
| CN(C)c1ccc(C(=O)CCCCOc2ccc(S(=O)(=O)C3(C(=O)NO)CCOCC3)cc2)cc1 | 0.035 µM | 0.14 µM | 1.1 µM | 0.0004 µM |  |
| COc1ccc(C(=O)NCCCOc2ccc(S(=O)(=O)C3(C(=O)NO)CCOCC3)cc2)cc1 |  | 0.9 µM |  |  | bioavailability [7]: 1.5%; half-life [8]: 34.8 min |
| CN(C)c1ccc(C(=O)NCCCOc2ccc(S(=O)(=O)C3(C(=O)NO)CCOCC3)cc2)cc1 | 1.1 µM | 1 µM |  | 0.002 µM |  |
| O=C(NCCCOc1ccc(S(=O)(=O)C2(C(=O)NO)CCOCC2)cc1)c1ccc(OC(F)(F)F)cc1 | 0.36 µM | 0.14 µM | 2.2 µM | 0.00066 µM |  |
| Cc1ccc(C(=O)NCCCOc2ccc(S(=O)(=O)C3(C(=O)NO)CCOCC3)cc2)c(C)c1 |  | 0.7 µM |  | 0.008 µM |  |
| O=C(NCCCOc1ccc(S(=O)(=O)C2(C(=O)NO)CCOCC2)cc1)C1CCCCC1 |  | 3.1 µM |  | 0.0082 µM |  |
| CCCC(C)(C)C(=O)NCCCOc1ccc(S(=O)(=O)C2(C(=O)NO)CCOCC2)cc1 |  | 1.2 µM |  | 0.03 µM |  |
| CN(C)c1ccc(C(=O)CCCOc2ccc(S(=O)(=O)C3(C(=O)NO)CCOCC3)cc2)cc1 |  | 0.17 µM |  |  |  |
| O=C(CCCOc1ccc(S(=O)(=O)C2(C(=O)NO)CCOCC2)cc1)N1CCCCC1 | 0.17 µM | 0.8 µM | 0.67 µM | 0.0012 µM |  |

More lines, main results first:

| IC50 [3] | IC50 [4] | IC50 [5] | IC50 [6] | Compound | also measured |
| --- | --- | --- | --- | --- | --- |
| 0.0025 µM | 0.031 µM | 0.023 µM | 0.0003 µM | COc1ccc(NC(=O)CCCOc2ccc(S(=O)(=O)C3(C(=O)NO)CCOCC3)cc2)cc1 |  |
| 0.27 µM | 0.049 µM | 0.38 µM | 0.0033 µM | CN(C(=O)CCCOc1ccc(S(=O)(=O)C2(C(=O)NO)CCOCC2)cc1)c1ccc(OC(F)(F)F)cc1 |  |
| 0.016 µM | 0.12 µM |  | 0.0009 µM | CN(C)c1ccc(C(=O)CCOc2ccc(S(=O)(=O)C3(C(=O)NO)CCOCC3)cc2)cc1 |  |
| 0.01 µM | 0.1 µM |  |  | CN(C)c1ccc(NC(=O)CCCOc2ccc(S(=O)(=O)C3(C(=O)NO)CCOCC3)cc2)cc1 |  |
| 0.011 µM | 0.0067 µM |  |  | O=C(CCCOc1ccc(S(=O)(=O)C2(C(=O)NO)CCOCC2)cc1)Nc1ccc(OC(F)(F)F)cc1 |  |
|  | 0.0026 µM |  |  | CN(C)c1ccc(NC(=O)CCCCOc2ccc(S(=O)(=O)C3(C(=O)NO)CCOCC3)cc2)cc1 |  |
|  | 0.067 µM |  |  | COc1ccc(OCCCCOc2ccc(S(=O)(=O)C3(C(=O)NO)CCOCC3)cc2)cc1 |  |
